According to ChEMBL document CHEMBL4507324 (2021):

Assays:
Conditions in all cases: Compound concentration 100.0 nM
[1] = biological target: Cyclin-dependent kinase 3 (Homo sapiens) (UniProt Q00526)
[2] = biological target: 3-phosphoinositide-dependent protein kinase 1 (Homo sapiens) (UniProt O15530)
[3] = tested on: Proto-oncogene tyrosine-protein kinase receptor Ret (Homo sapiens), P07949 [M918T]
[4] = biological target: Hormonally up-regulated neu tumor-associated kinase (Homo sapiens) (UniProt P57058)
[5] = biological target: Atypical kinase COQ8A, mitochondrial (Homo sapiens) (UniProt Q8NI60)
[6] = tested on: Hepatocyte growth factor receptor (Homo sapiens), P08581 [Y1235D]
[7] = biological target: Ribosomal protein S6 kinase alpha-5 (Homo sapiens) (UniProt O75582)
[8] = tested on: Phosphatidylinositol 4,5-bisphosphate 3-kinase catalytic subunit alpha isoform (Homo sapiens), P42336 [E542K]
[9] = biological target: Tyrosine-protein kinase Fyn (Homo sapiens) (UniProt P06241)
[10] = biological target: Serine/threonine-protein kinase PLK1 (Homo sapiens) (UniProt P53350)
[11] = biological target: Citron Rho-interacting kinase (Homo sapiens) (UniProt O14578)
[12] = biological target: Ephrin type-A receptor 5 (Homo sapiens) (UniProt P54756)
[13] = tested on: Tyrosine-protein kinase ABL1 (Homo sapiens), P00519 [E255K]
[14] = tested on: Tyrosine-protein kinase ABL1 (Homo sapiens), P00519 [H396P]
[15] = biological target: Serine/threonine-protein kinase 33 (Homo sapiens) (UniProt Q9BYT3)
[16] = biological target: Mitogen-activated protein kinase kinase kinase 1 (Homo sapiens) (UniProt Q13233)
[17] = biological target: Serine/threonine-protein kinase Nek9 (Homo sapiens) (UniProt Q8TD19)
[18] = biological target: MAP kinase-activated protein kinase 2 (Homo sapiens) (UniProt P49137)
[19] = biological target: Tyrosine-protein kinase FRK (Homo sapiens) (UniProt P42685)
[20] = biological target: Macrophage-stimulating protein receptor (Homo sapiens) (UniProt Q04912)
[21] = biological target: Calcium/calmodulin-dependent protein kinase type II subunit delta (Homo sapiens) (UniProt Q13557)
[22] = biological target: Dual specificity mitogen-activated protein kinase kinase 1 (Homo sapiens) (UniProt Q02750)
[23] = biological target: Epithelial discoidin domain-containing receptor 1 (Homo sapiens) (UniProt Q08345)
[24] = biological target: Testis-specific serine/threonine-protein kinase 3 (Homo sapiens) (UniProt Q96PN8)
[25] = biological target: Serine/threonine-protein kinase WNK4 (Homo sapiens) (UniProt Q96J92)
[26] = biological target: Serine/threonine-protein kinase 10 (Homo sapiens) (UniProt O94804)
[27] = biological target: Serine/threonine-protein kinase pim-3 (Homo sapiens) (UniProt Q86V86)
[28] = biological target: Homeodomain-interacting protein kinase 3 (Homo sapiens) (UniProt Q9H422)
[29] = biological target: RAC-beta serine/threonine-protein kinase (Homo sapiens) (UniProt P31751)
[30] = tested on: Mast/stem cell growth factor receptor Kit (Homo sapiens), P10721 [V559D]
[31] = biological target: RAF proto-oncogene serine/threonine-protein kinase (Homo sapiens) (UniProt P04049)
[32] = biological target: Casein kinase I isoform epsilon (Homo sapiens) (UniProt P49674)
[33] = tested on: Tyrosine-protein kinase ABL1 (Homo sapiens), P00519 [T315I]
[34] = biological target: Fibroblast growth factor receptor 3 (Homo sapiens) (UniProt P22607)
[35] = biological target: AP2-associated protein kinase 1 (Homo sapiens) (UniProt Q2M2I8)
[36] = biological target: Mitogen-activated protein kinase 13 (Homo sapiens) (UniProt O15264)
[37] = tested on: Epidermal growth factor receptor (Homo sapiens), P00533 [UNDEFINED MUTATION]
[38] = biological target: Dual specificity mitogen-activated protein kinase kinase 4 (Homo sapiens) (UniProt P45985)
[39] = biological target: cAMP-dependent protein kinase catalytic subunit alpha (Homo sapiens) (UniProt P17612)
[40] = biological target: Ephrin type-B receptor 4 (Homo sapiens) (UniProt P54760)
[41] = biological target: Beta-adrenergic receptor kinase 1 (Homo sapiens) (UniProt P25098)
[42] = biological target: Cyclin-dependent kinase 11A (Homo sapiens) (UniProt Q9UQ88)
[43] = tested on: Phosphatidylinositol 4,5-bisphosphate 3-kinase catalytic subunit alpha isoform (Homo sapiens), P42336 [C420R]
[44] = biological target: BDNF/NT-3 growth factors receptor (Homo sapiens) (UniProt Q16620)
[45] = biological target: Proto-oncogene tyrosine-protein kinase ROS (Homo sapiens) (UniProt P08922)

Chain of Atypical kinase COQ8A, mitochondrial (Homo sapiens) (Q8NI60 163-647 limits assumed): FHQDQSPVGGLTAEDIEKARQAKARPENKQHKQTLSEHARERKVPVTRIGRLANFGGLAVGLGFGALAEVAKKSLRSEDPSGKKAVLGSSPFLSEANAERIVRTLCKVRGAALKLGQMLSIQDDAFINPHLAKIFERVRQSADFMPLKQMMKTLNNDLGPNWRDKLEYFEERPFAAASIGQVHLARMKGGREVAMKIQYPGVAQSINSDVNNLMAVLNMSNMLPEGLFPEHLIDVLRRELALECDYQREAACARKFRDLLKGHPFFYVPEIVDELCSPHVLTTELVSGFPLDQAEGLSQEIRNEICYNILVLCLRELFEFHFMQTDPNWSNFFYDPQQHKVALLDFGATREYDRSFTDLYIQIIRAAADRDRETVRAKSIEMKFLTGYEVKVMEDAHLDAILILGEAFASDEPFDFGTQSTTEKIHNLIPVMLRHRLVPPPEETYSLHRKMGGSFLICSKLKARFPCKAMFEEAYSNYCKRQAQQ
Chain of Tyrosine-protein kinase FRK (Homo sapiens) (P42685 whole entry): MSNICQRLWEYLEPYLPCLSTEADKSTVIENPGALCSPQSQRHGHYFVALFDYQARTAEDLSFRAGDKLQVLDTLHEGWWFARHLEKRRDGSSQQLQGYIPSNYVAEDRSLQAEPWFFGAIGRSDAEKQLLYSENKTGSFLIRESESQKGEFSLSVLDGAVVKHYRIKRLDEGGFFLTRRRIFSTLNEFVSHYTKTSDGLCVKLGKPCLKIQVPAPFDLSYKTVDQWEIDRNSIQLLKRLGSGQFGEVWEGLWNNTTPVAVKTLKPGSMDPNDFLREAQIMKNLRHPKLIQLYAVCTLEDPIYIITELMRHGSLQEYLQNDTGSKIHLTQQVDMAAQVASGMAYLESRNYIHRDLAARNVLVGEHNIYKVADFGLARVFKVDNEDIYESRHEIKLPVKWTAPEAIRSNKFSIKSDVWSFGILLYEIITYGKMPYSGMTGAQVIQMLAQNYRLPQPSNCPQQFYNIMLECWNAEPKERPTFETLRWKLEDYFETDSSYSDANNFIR
Chain of Phosphatidylinositol 4,5-bisphosphate 3-kinase catalytic subunit alpha isoform (Homo sapiens), P42336 [E542K] (P42336 whole entry E542K, canonical isoform): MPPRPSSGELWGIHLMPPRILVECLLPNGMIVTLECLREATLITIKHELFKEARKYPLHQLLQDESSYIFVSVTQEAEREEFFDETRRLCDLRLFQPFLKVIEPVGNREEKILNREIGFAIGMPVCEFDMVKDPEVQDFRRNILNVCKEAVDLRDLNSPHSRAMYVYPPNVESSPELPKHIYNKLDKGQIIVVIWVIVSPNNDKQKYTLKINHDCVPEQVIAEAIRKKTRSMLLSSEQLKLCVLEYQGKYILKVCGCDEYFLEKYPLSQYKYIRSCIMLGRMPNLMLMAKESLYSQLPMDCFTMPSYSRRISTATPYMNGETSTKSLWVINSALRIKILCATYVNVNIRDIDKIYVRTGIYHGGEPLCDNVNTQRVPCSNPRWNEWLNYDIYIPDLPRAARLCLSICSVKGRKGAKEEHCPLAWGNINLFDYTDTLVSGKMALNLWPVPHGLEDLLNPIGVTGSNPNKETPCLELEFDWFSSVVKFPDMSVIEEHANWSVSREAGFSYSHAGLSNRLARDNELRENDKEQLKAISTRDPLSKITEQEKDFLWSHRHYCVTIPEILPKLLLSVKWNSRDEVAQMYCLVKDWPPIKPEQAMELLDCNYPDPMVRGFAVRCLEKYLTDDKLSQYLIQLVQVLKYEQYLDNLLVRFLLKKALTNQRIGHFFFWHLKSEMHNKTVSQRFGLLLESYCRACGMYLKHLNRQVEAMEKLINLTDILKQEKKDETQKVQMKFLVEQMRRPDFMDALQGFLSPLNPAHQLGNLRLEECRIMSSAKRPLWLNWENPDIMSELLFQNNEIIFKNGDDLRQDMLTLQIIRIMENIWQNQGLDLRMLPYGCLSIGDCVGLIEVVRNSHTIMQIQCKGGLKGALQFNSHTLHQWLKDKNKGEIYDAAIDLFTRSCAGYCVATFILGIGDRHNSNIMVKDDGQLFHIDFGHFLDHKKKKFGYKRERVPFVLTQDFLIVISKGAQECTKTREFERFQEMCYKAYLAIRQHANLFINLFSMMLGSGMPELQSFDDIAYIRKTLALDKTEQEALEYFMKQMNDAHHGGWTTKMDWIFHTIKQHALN
Chain of Serine/threonine-protein kinase 10 (Homo sapiens) (O94804 whole entry, looked up): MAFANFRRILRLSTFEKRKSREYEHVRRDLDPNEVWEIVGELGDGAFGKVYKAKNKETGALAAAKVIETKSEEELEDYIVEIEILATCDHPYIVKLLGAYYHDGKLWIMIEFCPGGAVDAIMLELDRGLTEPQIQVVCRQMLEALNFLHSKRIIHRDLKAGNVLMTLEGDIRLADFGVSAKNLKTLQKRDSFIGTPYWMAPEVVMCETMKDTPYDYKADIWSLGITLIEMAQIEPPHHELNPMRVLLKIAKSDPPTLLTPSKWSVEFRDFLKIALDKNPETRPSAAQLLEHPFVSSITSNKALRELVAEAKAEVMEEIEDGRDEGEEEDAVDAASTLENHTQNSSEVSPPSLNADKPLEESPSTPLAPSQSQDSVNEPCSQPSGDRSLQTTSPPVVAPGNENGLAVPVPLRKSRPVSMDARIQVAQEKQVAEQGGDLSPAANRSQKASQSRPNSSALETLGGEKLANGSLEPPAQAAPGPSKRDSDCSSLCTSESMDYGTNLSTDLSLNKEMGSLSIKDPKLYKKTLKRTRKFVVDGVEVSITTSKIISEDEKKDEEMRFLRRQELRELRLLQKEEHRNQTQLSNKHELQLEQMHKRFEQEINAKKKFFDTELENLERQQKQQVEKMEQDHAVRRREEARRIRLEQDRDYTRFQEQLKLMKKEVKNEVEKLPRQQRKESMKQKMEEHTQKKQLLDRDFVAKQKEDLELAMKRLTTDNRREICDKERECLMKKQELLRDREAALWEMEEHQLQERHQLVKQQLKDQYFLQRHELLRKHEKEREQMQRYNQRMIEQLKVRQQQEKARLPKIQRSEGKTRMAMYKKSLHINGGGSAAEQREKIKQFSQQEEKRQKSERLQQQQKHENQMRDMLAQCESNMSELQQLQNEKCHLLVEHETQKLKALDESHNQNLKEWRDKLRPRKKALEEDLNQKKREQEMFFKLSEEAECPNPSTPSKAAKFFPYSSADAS
Chain of Serine/threonine-protein kinase WNK4 (Homo sapiens) (Q96J92 whole entry): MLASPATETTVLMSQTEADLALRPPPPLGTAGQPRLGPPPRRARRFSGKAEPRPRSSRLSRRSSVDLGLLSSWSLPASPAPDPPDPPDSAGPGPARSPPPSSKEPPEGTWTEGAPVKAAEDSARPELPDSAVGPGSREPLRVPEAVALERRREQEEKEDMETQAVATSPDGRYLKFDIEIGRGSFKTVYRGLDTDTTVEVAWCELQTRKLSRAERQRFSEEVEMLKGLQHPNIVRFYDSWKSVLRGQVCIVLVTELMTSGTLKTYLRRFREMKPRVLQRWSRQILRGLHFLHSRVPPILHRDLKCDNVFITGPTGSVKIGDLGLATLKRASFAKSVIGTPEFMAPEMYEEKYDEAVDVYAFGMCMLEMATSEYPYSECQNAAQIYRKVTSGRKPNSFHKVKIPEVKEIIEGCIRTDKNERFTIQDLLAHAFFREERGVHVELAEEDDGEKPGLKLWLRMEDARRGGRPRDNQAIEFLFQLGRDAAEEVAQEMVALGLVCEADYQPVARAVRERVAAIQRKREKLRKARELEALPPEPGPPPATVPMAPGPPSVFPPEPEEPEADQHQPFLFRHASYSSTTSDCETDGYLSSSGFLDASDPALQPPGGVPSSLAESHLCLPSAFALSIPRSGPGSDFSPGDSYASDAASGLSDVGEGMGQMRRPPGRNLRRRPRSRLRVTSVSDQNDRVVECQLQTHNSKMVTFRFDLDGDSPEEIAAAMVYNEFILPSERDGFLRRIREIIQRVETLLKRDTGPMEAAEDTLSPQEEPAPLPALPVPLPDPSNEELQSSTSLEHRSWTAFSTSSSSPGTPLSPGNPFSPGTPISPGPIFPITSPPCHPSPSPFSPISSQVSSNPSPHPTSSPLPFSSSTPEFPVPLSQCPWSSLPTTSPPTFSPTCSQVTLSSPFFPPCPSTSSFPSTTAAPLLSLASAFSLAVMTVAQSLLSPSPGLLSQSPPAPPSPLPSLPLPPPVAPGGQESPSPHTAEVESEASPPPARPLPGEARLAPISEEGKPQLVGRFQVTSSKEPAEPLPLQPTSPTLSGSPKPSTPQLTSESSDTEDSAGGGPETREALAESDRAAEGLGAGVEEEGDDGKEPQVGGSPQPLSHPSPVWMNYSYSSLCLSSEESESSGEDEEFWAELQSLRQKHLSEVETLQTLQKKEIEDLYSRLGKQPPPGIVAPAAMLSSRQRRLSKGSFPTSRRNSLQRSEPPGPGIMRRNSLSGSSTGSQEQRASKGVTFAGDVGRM
Chain of Hormonally up-regulated neu tumor-associated kinase (Homo sapiens) (P57058 whole entry): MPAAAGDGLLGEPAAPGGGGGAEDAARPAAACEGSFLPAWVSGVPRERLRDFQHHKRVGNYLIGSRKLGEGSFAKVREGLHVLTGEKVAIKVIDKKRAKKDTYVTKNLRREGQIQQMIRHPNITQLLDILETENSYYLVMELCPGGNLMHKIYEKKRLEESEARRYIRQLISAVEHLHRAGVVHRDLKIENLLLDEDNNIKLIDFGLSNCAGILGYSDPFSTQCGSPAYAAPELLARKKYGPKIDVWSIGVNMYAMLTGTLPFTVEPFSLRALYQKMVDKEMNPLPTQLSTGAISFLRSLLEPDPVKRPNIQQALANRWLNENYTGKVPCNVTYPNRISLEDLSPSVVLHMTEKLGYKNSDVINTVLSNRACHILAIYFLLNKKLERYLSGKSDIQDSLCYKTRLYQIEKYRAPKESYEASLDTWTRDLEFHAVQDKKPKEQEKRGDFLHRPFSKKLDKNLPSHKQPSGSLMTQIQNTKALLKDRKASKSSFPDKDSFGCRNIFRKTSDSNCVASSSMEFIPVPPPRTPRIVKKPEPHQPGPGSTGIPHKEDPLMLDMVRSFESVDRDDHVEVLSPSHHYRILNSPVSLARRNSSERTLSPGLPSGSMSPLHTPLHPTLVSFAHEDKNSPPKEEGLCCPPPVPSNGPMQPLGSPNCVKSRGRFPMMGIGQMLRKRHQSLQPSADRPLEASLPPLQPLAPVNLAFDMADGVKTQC
Chain of Phosphatidylinositol 4,5-bisphosphate 3-kinase catalytic subunit alpha isoform (Homo sapiens), P42336 [C420R] (P42336 whole entry C420R, canonical isoform): as the sequence (P42336 whole entry E542K, canonical isoform) above, with C420R, K542E counted along it

## CS(=O)(=O)N1CCCC(NC(=O)[C@H](CCC2CCCCC2)NC(=O)c2ccc(CNc3ncnc4c3nnn4-c3ccccc3)cc2)C1 (stereo not given in full) [SR-301]
[1]
  residual activity: 82%
[2]
  residual activity: 99%
[3]
  residual activity: 93%
[4]
  residual activity: 100%
[5]
  residual activity: 97%
[6]
  residual activity: 98%
[7]
  residual activity: 81%
[8]
  residual activity: 64%
[9]
  residual activity: 56%
[10]
  residual activity: 80%
[11]
  residual activity: 98%
[12]
  residual activity: 96%
[13]
  residual activity: 87%
[14]
  residual activity: 100%
[15]
  residual activity: 84%
[16]
  residual activity: 81%
[17]
  residual activity: 100%
[18]
  residual activity: 100%
[19]
  residual activity: 60%
[20]
  residual activity: 97%
[21]
  residual activity: 93%
[22]
  residual activity: 100%
[23]
  residual activity: 89%
[24]
  residual activity: 100%
[25]
  residual activity: 100%
[26]
  residual activity: 100%
[27]
  residual activity: 100%
[28]
  residual activity: 100%
[29]
  residual activity: 100%
[30]
  residual activity: 93%
[31]
  residual activity: 70%
[32]
  residual activity: 100%
[33]
  residual activity: 100%
[34]
  residual activity: 100%
[35]
  residual activity: 90%
[36]
  residual activity: 100%
[37]
  residual activity: 94%
[38]
  residual activity: 100%
[39]
  residual activity: 100%
[40]
  residual activity: 96%
[41]
  residual activity: 72%
[42]
  residual activity: 87%
[43]
  residual activity: 89%
[44]
  residual activity: 100%
[45]
  residual activity: 91%

## CS(=O)(=O)N1CCCC(NC(=O)[C@H](CCC2CCCCC2)NC(=O)c2ccc(CNC(=O)c3cnc4ccccn34)cc2)C1 (stereo not given in full) [SR-302]
[1]
  residual activity: 100%
[2]
  residual activity: 100%
[3]
  residual activity: 93%
[4]
  residual activity: 100%
[5]
  residual activity: 100%
[6]
  residual activity: 99%
[7]
  residual activity: 90%
[8]
  residual activity: 78%
[9]
  residual activity: 80%
[10]
  residual activity: 100%
[11]
  residual activity: 100%
[12]
  residual activity: 100%
[13]
  residual activity: 74%
[14]
  residual activity: 100%
[15]
  residual activity: 100%
[16]
  residual activity: 100%
[17]
  residual activity: 100%
[18]
  residual activity: 76%
[19]
  residual activity: 77%
[20]
  residual activity: 100%
[21]
  residual activity: 84%
[22]
  residual activity: 100%
[23]
  residual activity: 0.1%
[24]
  residual activity: 93%
[25]
  residual activity: 80%
[26]
  residual activity: 100%
[27]
  residual activity: 99%
[28]
  residual activity: 100%
[29]
  residual activity: 93%
[30]
  residual activity: 49%
[31]
  residual activity: 61%
[32]
  residual activity: 93%
[33]
  residual activity: 100%
[34]
  residual activity: 100%
[35]
  residual activity: 92%
[36]
  residual activity: 100%
[37]
  residual activity: 100%
[38]
  residual activity: 100%
[39]
  residual activity: 100%
[40]
  residual activity: 97%
[41]
  residual activity: 88%
[42]
  residual activity: 100%
[43]
  residual activity: 93%
[44]
  residual activity: 87%
[45]
  residual activity: 100%
